These results are taken from patent US20260234157A1, “COMPOUND AND METHOD FOR TARGETED DEGRADATION OF ANDROGEN RECEPTOR” (Gan & Lee Pharmaceuticals Co., Ltd., priority 2023, published 2026).

Read-outs that look alike come from different tables or passages of the source.

Holding throughout (type): cell-based
Assay [1] deals with T1, AR protein (Homo sapiens, UniProt P10275, T878A).
T1 construct: degradation activity of the compounds disclosed in the present disclosure on AR protein in LNCaP cells; host or cells: LNCaP FGC
T1 sequence (P10275 1-920 T878A): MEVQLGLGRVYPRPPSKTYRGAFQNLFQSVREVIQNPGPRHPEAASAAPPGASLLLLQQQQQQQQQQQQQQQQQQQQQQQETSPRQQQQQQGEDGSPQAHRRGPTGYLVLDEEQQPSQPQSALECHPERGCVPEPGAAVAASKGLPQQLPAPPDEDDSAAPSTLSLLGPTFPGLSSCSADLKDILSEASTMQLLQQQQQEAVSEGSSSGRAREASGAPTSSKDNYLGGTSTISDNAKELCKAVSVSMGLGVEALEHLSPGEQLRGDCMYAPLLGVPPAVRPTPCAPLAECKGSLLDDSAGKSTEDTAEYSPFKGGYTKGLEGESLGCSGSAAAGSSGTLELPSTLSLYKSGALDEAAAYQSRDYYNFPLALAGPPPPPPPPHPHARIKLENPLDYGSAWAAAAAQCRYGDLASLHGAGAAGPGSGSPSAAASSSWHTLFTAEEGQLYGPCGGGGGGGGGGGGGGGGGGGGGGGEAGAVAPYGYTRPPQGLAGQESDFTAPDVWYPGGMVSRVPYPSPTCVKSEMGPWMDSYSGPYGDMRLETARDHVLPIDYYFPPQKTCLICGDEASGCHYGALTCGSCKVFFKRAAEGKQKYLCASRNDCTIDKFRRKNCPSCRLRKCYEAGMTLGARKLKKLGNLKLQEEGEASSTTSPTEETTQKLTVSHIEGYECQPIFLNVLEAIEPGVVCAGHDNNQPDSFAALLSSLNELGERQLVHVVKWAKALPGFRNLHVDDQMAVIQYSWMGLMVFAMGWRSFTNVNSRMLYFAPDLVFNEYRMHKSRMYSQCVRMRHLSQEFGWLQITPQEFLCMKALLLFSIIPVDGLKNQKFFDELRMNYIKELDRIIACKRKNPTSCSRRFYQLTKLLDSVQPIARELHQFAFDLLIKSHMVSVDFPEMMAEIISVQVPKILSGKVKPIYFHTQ
The assay can be described thus: Degradation of AR protein in LNCaP cells (Western blot). As to conditions: for inhibition at 0.01 µM: read-out: Degradation rates of the AR protein in LNCaP cells, 10 nM (%); for inhibition at 0.1 µM: read-out: Degradation rates of the AR protein in LNCaP cells, 100 nM (%). In short, it runs like this: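 Percent AR degradation was derived from GAPDH-normalised Western blot band intensities (infrared detection) in LNCaP lysates.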

Assay [2] relates to VCaP cells. The assay can be described thus: Inhibition of proliferation of VCaP cells (WST-8). The settings on record: Homo sapiens, read-out: IC50 for inhibiting the proliferation of VCaP cells. As to the method: The inhibitory activity of the compounds disclosed in the present disclosure on the proliferation of VCaP cells
On the first day of the experiment, […] were inoculated in 96 well plates at a density of 15000 cells per well using DMEM medium containing 10% fetal bovine serum, with 100 μL of cell suspension per well. The cells were cultured in a cell culture incubator with 5% CO2 at 37° C. overnight. […] On the ninth day, 96 well plates were taken out, and 20 μL of WST-8 (Beytime, C0040) reagent was added to each well.
(Tetrazolium assays rely on reduction of a dye to a coloured formazan, in cell work by metabolically active cells.)

For assay [3], the system named is LNCaP FGC cells. The assay can be described thus: Inhibition of proliferation of LNCaP cells (WST-8). The settings on record: Homo sapiens, LNCaP, 96 h. As to the method: The cells were cultured in a cell culture incubator with 5% CO2 at 37° C. overnight. […] On the sixth day, 96 well plates were taken out, and 20 μL of WST-8 (Beytime, C0040) reagent was added to each well.

[4] abbreviates: read-out: IC50 for inhibiting the proliferation of LNCaP cells, LNCaP FGC cells, 96 hours, WST-8 absorbance at 450 nm.
Where [5] appears, read: LNCaP cells, compound 10 nM, 8 hours, Western blot grayscale, GAPDH internal reference.
Setting [6] is: LNCaP cells, compound 100 nM, 8 hours, Western blot grayscale, GAPDH internal reference.
Setting [7] is: VCaP cells, 168 hours, WST-8 absorbance at 450 nm.
The mark [8] stands for this setting: LNCaP FGC cells, 96 hours, WST-8 absorbance at 450 nm, read-out: IC50 for inhibiting the proliferation of LNCaP cells.

In the case of `N#Cc1ccc(O[C@H]2CC[C@H](NC(=O)c3ccc(N4CCC(N5CCC6(CC5)CC(F)(F)c5cc7c(cc5O6)C(=O)N(C5CCC(=O)NC5=O)C7=O)CC4)nn3)CC2)cc1Cl` (stereo partly shown) [Compound 38], in assay [1] (LNCaP, 8 h), the inhibition at 0.01 µM was 29% and the inhibition at 0.1 µM is 48%. Also, the IC50 in assay [2] (VCaP, 168 h) was 5.29 µM. Also, the IC50 in assay [3] (setting [4]) amounted to 2.4 µM.
In the case of `N#Cc1ccc(O[C@H]2CC[C@H](NC(=O)c3ccc(N4CC(N5CCC6(CC5)Oc5cc7c(cc5CC6(F)F)C(=O)N(C5CCC(=O)NC5=O)C7=O)C4)nn3)CC2)cc1Cl` (stereo partly shown) [Compound 37], in assay [1] (LNCaP, 8 h), the inhibition at 0.01 µM stood at 5% and the inhibition at 0.1 µM amounted to 29%. Further, the IC50 in assay [2] (VCaP, 168 h) came to 3.23 µM. Also, the IC50 in assay [3] (setting [4]) stood at 4.53 µM.
For the compound `N#Cc1ccc(O[C@H]2CC[C@H](NC(=O)c3ccc(N4CCC5(CC4)COc4cc6c(cc4O5)C(=O)N(C4CCC(=O)NC4=O)C6=O)nn3)CC2)cc1Cl` (stereo partly shown) [Compound 75], the inhibition at 0.01 µM in assay [1] (setting [5]) turned out to be 41%. Also, the inhibition at 0.1 µM in assay [1] (setting [6]) was determined as 36%. Also, the values for the IC50 in assay [2] (setting [7]) and in assay [3] (setting [8]) were 7.4 µM and 6.05 µM, respectively.
For the compound `COC1(CN2CCC3(CC2)Cc2cc4c(cc2O3)C(=O)N(C2CCC(=O)NC2=O)C4=O)CCN(c2ccc(C(=O)N[C@H]3CC[C@H](Oc4ccc(C#N)c(Cl)c4)CC3)nn2)CC1` (stereo partly shown) [Compound 199], the IC50 was 0.57 µM in assay [2] (setting [7]) and 1.11 µM in assay [3] (setting [8]).
Consider `N#Cc1ccc(O[C@H]2CC[C@H](NC(=O)c3ccc(N4CCC(N5CCC(C(=O)N6CCC7(CC6)COc6c7ccc7c6CN(C6CCC(=O)NC6=O)C7=O)CC5)CC4)nn3)CC2)cc1Cl` (stereo partly shown) [Compound 160], for which, in assay [1] (setting [5]), the inhibition at 0.01 µM stood at 67%. Moreover, the inhibition at 0.1 µM in assay [1] (setting [6]) is 76%. Also, the IC50 worked out at 0.002 µM in assay [2] (setting [7]) and 59.9 µM in assay [3] (setting [8]).
For `CC1(C)C(=O)N(c2ccc(C#N)c(C(F)(F)F)c2)C(=S)N1c1ccc(C(=O)N2CC3(CC(N4CCC5(CCc6cc7c(cc6O5)C(=O)N(C5CCC(=O)NC5=O)C7=O)CC4)C3)C2)c(F)c1` (stereo not shown) [Compound 100], the IC50 came to 0.62 µM in assay [2] (VCaP, 168 h) and 27.9 µM in assay [3] (setting [4]).
In the same order, the values of `N#Cc1ccc(O[C@H]2CC[C@H](NC(=O)c3ccc(N4CC5(CCC(N6CCC(N7CCC8(CC7)COc7c8ccc8c7CN(C7CCC(=O)NC7=O)C8=O)CC6)CC5)C4)nn3)CC2)cc1Cl` (stereo partly shown) [Compound 175] are 0.01 µM and 8.07 µM.
Turning to `CC1(C)C(=O)N(c2ccc(C#N)c(C(F)(F)F)c2)C(=S)N1c1ccc(C(=O)N2CCC(CN3CCN(c4cc5c(cc4F)C(=O)N(C4CCC(=O)NC4=O)C5=O)CC3)CC2)c(F)c1` (stereo not shown) [Compound 87], the IC50 was 4.19 µM in assay [2] (setting [7]) and 5.16 µM in assay [3] (setting [8]).
In the case of `CC1(C)C(=O)N(c2ccc(C#N)c(C(F)(F)F)c2)C(=S)N1c1ccc(C(=O)N2CCC(CN3CCC4(CC3)COc3cc5c(cc3C4)C(=O)N(C3CCC(=O)NC3=O)C5=O)CC2)c(F)c1` (stereo not shown) [Compound 82], the IC50 is 4.26 µM in assay [2] (VCaP, 168 h) and 3.39 µM in assay [3] (setting [4]).
On to `N#Cc1ccc(O[C@H]2CC[C@H](NC(=O)c3ccc(N4CCN(C5CCC6(CCc7cc8c(cc7O6)C(=O)N(C6CCC(=O)NC6=O)C8=O)CC5)CC4)nn3)CC2)cc1Cl` (stereo partly shown) [Compound 29], for which the inhibition at 0.01 µM in assay [1] (setting [5]) is 35%. Besides, the inhibition at 0.1 µM in assay [1] (setting [6]) was found to be 63%. The IC50 in assay [2] (setting [7]) amounted to 1.2 µM; in assay [3] (setting [8]), 0.93 µM.
Turning to `CC1(CN2CCC3(CC2)COc2cc4c(cc2C3)C(=O)N(C2CCC(=O)NC2=O)C4=O)CCN(C(=O)c2ccc(N3C(=S)N(c4ccc(C#N)c(C(F)(F)F)c4)C(=O)C3(C)C)cc2F)CC1` (stereo not shown) [Compound 114], the IC50 in assay [2] (VCaP, 168 h) is 3.29 µM; in assay [3] (setting [4]), 7.63 µM.
On to `N#Cc1ccc(O[C@H]2CC[C@H](NC(=O)c3ccc(N4CCC(F)(CN5CCC6(CCc7ccc8c(c7O6)C(=O)N(C6CCC(=O)NC6=O)C8)CC5)CC4)nn3)CC2)cc1Cl` (stereo partly shown) [Compound 163], for which the IC50 worked out at 0.65 µM in assay [2] (setting [7]) and 13.6 µM in assay [3] (setting [8]).
The like results for `COC1(CN2CCC3(CCc4cc5c(cc4O3)C(=O)N(C3CCC(=O)NC3=O)C5)CC2)CCN(c2ccc(C(=O)N[C@H]3CC[C@H](Oc4ccc(C#N)c(Cl)c4)CC3)nn2)CC1` (stereo partly shown) [Compound 131] were, in that order, 2.27 µM and 4.55 µM.
On to `CC1(C)C(=O)N(c2ccc(C#N)c(C(F)(F)F)c2)C(=S)N1c1ccc(C(=O)N2CC[C@@H](CN3CCC4(CC3)COc3cc5c(cc3C4)C(=O)N(C3CCC(=O)NC3=O)C5=O)C2)c(F)c1` (stereo partly shown) [Compound 83], for which the IC50 amounted to 9.73 µM in assay [2] (VCaP, 168 h) and 7.06 µM in assay [3] (setting [4]).
In the case of `CC1(C)C(=O)N(c2ccc(C#N)c(C(F)(F)F)c2)C(=S)N1c1ccc(C(=O)N2CC[C@H](CN3CCC4(CC3)COc3cc5c(cc34)C(=O)N(C3CCC(=O)NC3=O)C5=O)C2)c(F)c1` (stereo partly shown) [Compound 125], the IC50 in assay [2] (VCaP, 168 h) came to 9.29 µM; in assay [3] (setting [4]) it was 6.97 µM.
For the compound `COC1(CN2CC3(CCc4cc5c(cc4O3)CN(C3CCC(=O)NC3=O)C5=O)C2)CCN(C(=O)c2ccc(N3C(=S)N(c4ccc(C#N)c(C(F)(F)F)c4)C(=O)C3(C)C)cc2F)CC1` (stereo not shown) [Compound 89], the IC50 amounted to 0.35 µM in assay [2] (VCaP, 168 h) and 3.24 µM in assay [3] (setting [4]).
In the same order, the values of `CC1(C)C(=O)N(c2ccc(C#N)c(C(F)(F)F)c2)C(=S)N1c1ccc(C(=O)N2CCC3(CCC(N4CCC5(CC4)COc4cc6c(cc4C5)C(=O)N(C4CCC(=O)NC4=O)C6=O)CC3)C2)c(F)c1` (stereo not shown) [Compound 130] are 3.61 µM and 2.66 µM.
Regarding `COC1(CN2CC3(CCc4cc5c(cc4O3)C(=O)N(C3CCC(=O)NC3=O)C5=O)C2)CCN(C(=O)c2ccc(N3C(=S)N(c4ccc(C#N)c(C(F)(F)F)c4)C(=O)C3(C)C)cc2F)CC1` (stereo not shown) [Compound 88], the IC50 in assay [2] (setting [7]) amounted to 0.17 µM; in assay [3] (setting [8]), 0.53 µM.
